Data set [1] can be described thus: Acute toxicity (LD50) by mice. The following applies: mouse, in vivo.
For data set [2], the system named is B16 subline of high pulmonary metastatic potential. As to the kind of experiment: Inhibition of pulmonary metastasis of B16 subline pretreated with compound and injected i.v. into BDF1 mice. Type of data set: in vivo, murine; mouse BDF1. The following applies: for Inhibition of metastasis to the lungs (in words): B16 subline, BDF1 mice. The procedure: Based on the method described priviously (Method in Cancer Research, 15, 399-439, 1978), a subline of high metastatic potential (high pulmonary colonization) was selected from murine melanoma B16 by repeating the i.v. transplantation of the tumor cells in BDF1 mice and the isolation of pulmonary metastatic clones.
Evaluation of the metastasis inhibiting activity was performed based on the method described previously (Proc. Natl Acad. Sci. USA, 83, 1752-1756, 1986, Cancer Research, 46, 858-862, 1986).
Firstly, the B16 subline of high metastatic potential was inoculated into Dulbecco's ME medium (DME medium) supplemented with 10% bovine fetal serum and the compound represented by general formula (I) described above was added thereto.
The B16 subline of high pulmonary metastatic potential was inoculated into DME medium supplemented with 10% bovine fetal serum and 30, 100 or 300 μg/ml of N (3-phenylpropyl)-1-deoxynojirimycin was added thereto followed by incubation at 37° C. for 3 days in the presence of 5% CO2.
Inhibition of metastasis was examined in a manner similar to Test Example 2 except that N-(3-phenyl-2-propenyl)-1-deoxy-nojirimycin and N-(3-p-chlorophenyl-3-methyl-2-propenyl)-1-deoxynojirimycin were used instead of N-(3-phenylpropyl)-1-deoxynojirimycin in Test Example 2. In this test example, however, 2.5×10^5 cells each of the B16 subline were transplanted to 3 mice for each group.
The B16 subline of high pulmonary metastatic potential was inoculated into DME medium supplemented with 10% bovine fetal serum and 30 μg/ml of N-(4-phenoxy-trans-2-butenyl)-1-deoxynojirimycin was added thereto followed by incubation at 37° C. for 3 days in the presence of 5% CO2. […] The number of colonies of the B16 subline formed on the surface of and in the lung was counted.
Inhibition of metastasis was examined in a manner similar to Test Example 5 except that N-(2-phenoxyethyl)-1-deoxynojirimycin was used instead of N-(4-phenoxy-trans-2-butenyl)-1-deoxynojirimycin in Test Example 5.
The B16 sibline of high pulmonary metastatic potential was inoculated into DME medium supplemented with 10% bovine fetal serum and 10 μg/ml of D-glucaro-δ-lactam calcium salt was added thereto followed by incubation at 37° C. for 3 days in the presence of 5% CO2. […] The number of the colonies formed on the surface of and in the lung was counted.
Inhibition of metastasis was examined in a manner similar to Test Example 8 except that D-glucaro-δ-lactam methyl ester and D-glucaro-δ-lactam ethyl ester were used instead of D-glucaro-δ-lactam calcium salt in Test Example 8.
The B16 subline of high pulmonary metastatic potential was inoculated into DME medium supplemented with 10% bovine fetal serum and 10 μg/ml of 2,6-di-O-(acetylsalicyloyl)-D-gluco-δ-lactam was added thereto followed by incubation at 37° C. for 3 days in the presence of 5% CO2.
The B16 subline of high pulmonary metastatic potential was inoculated into DME medium supplemented with 10% bovine fetal serum and 30 μg/ml of 6-O-triphenylmethyl-D-gluco-δ-lactam was added thereto followed by incubation at 37° C. for 3 days in the presence of 5% CO2.
The B16 subline of high pulmonary metastatic potential was inoculated into DME medium supplemented with 10% bovine fetal serum and 30 μg/ml of 1-deoxynojirimycin was added thereto followed by incubation at 37° C. for 3 days in the presence of 5% CO2.

Data set [3] shares this test system. The following applies: 3 days. The procedure:
(§1) The B16 subline of high pulmonary metastatic potential and murine tumor cell line L 929 were cultured in DME medium supplemented with 10% bovine fetal serum at 37° C. in the presence of 5% CO2. Then, cells were detached from the Petri dish with trypsin-EDTA solution. The B16 subline and L 929 were suspended in the medium described above in 1×10^4 cells/ml and 1×10^3 cells/ml, respectively. Each suspension, 150 μl, was added to 50 μl of N-(3-phenylpropyl)-1-deoxynojirimycin solution or Adriamycin (control) solution. Incubation was performed for 3 days for the B16 subline and for 4 days for L 929 strain.
as §1, with “of N-(4-phenoxy-trans-2-butenyl)-1-deoxynojirimycin” for “of N-(3-phenylpropyl)-1-deoxynojirimycin”, “days in” for “days for”, “L 929.” for “L 929 strain.”
The B16 subline of high pulmonary metastatic potential and murine tumor cell line L 929 were cultured in DME medium supplemented with 10% bovine fetal serum at 37° C. in the presence of 5% CO2. Then, cells were detached from the Petri dish with trypsin-EDTA solution. The B16 subline and L 929 were suspended in the medium described above in 1×10^4 cells/ml and 1×10^3 cells/ml, respectively. Each suspension, 150 μl, was added to 50 μl of D-glucaro-δ-lactam calcium salt solution or Adriamycin (control) solutions. Incubation was performed for 3 days in the B16 subline and for 4 days in L 929.
The B16 subline of high pulmonary metastatic potential and murine tumor cell line L 929 were cultured in DME medium supplemented with 10% bovine fetal serum at 37° C. in the presence of 5% CO2. Then, cells were detached from the Petri dish with trypsin-EDTA solution. The B16 subline and L 929 were suspended in the medium described above in 1×10^4 cells/ml and 1×10^3 cells/ml, respectively. Each suspension, 150 μl, was added to 50 μl of 2,6-di-O-(1-(p-chlorobenzoyl)-5-methoxy-2-methylindole-3-acetyl)-D-gluco-δ-lactam solution or and Adriamycin (control) solutions. Incubation was performed for 3 days in the B16 subline and for 4 days in L 929.
The B16 subline of high pulmanary metastatic potential and murine tumor cell line L 929 were cultured in DME medium supplemented with 10% bovine fetal serum at 37° C. in the presence of 5% CO2. Then, cells were detached from the Petri dish with trypsin-EDTA solution. The B16 subline and L 929 were suspended in the medium described above in 1×10^4 cells/ml and 1×10^3 cells/ml, respectively. Each suspension, 150 μl, was added to 50 μl of 6-O-triphenylmethyl-D-gluco-δ-lactam solution or Adriamycin (control) solutions. Incubation was performed for 3 days in the B16 sibline and for 4 days in L 929.
The B16 subline of high pulmonary metastatic potential was inoculated into DME medium supplemented with 10% bovine fetal serum and 30 μg/ml of 1-deoxynojirimycin was added thereto followed by incubation at 37° C. for 3 days in the presence of 5% CO2. […] Next, the cells were detached from the Petri dish with trypsin-EDTA solution. The cells were suspended in PBS- in 1×10^6 cells/ml as viable cells. This suspension, 0.1 ml, was intravenously injected in the tail vein of the mouse BDF1 (8 week age, male; 1 group, 3 mice). After feeding for 14 days, the mouse was sacrificed to excise the lungs. The number of colonies of the B16 subline on the surface of and in the lungs was counted.

In data set [4] the test system is murine tumor cell line L 929. Description: Cytotoxic activity against L 929 (growth observed with inverted microscope, 4 days).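 For growth: + means growth and ± means marked inhibition and - means cell death.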 Type of data set: cell-based. The following applies: for Growth: 4 days. The procedure: The B16 subline of high pulmonary metastatic potential and murine tumor cell line L 929 were cultured in DME medium supplemented with 10% bovine fetal serum at 37° C. in the presence of 5% CO2.
The B16 subline of high pulmanary metastatic potential and murine tumor cell line L 929 were cultured in DME medium supplemented with 10% bovine fetal serum at 37° C. in the presence of 5% CO2.

[5] abbreviates: Table 10, 30 μg/ml, None 82 ± 11.2.

Counter-ions that a name gives are not always drawn. Like-named read-outs stand apart in the source and are kept apart here.

The term LD50 denotes the dose expected to kill half of the subjects tested. High values mean a less toxic substance, low ones a more toxic substance.

As to `COC(=O)[C@H]1NC(=O)[C@H](O)[C@@H](O)[C@@H]1O` [D-Glucaro-δ-lactam methyl ester, D-glucaro-δ-lactam methyl ester], the values for the LD50 in data set [1] (iv) and in data set [1] (po) were more than 5000 mg/kg and more than 10000 mg/kg, respectively. Moreover, the “Inhibition of metastasis to the lungs (in words)” value (from here on “Inhibition of metastasis”) in data set [2] was “markedly inhibited”. Further, the “Pulmonary Metastasis (Mean ± Standard Deviation)” value in data set [2] (setting [5]) stood at 21 ± 8.5 no.

With `OC[C@@H]1[C@@H](O)[C@H](O)[C@@H](O)CN1CCOc1ccccc1` [N-(2-Phenoxyethyl)-1-deoxynojirimycin, N-(2-phenoxyethyl)-1-deoxynojirimycin], the “Inhibition of metastasis” value in data set [2] was “markedly inhibited”. In addition, in data set [2] (Table 7, 100 μg/ml, None 86 ± 22.1), the “Pulmonary Metastasis (Mean ± Standard Deviation)” value turned out to be 7 ± 2.1 no.

As for `O=C(O)[C@H]1NC(=O)[C@H](O)[C@@H](O)[C@@H]1O` [D-Glucaro-δ-lactam calcium salt, D-glucaro-δ-lactam calcium salt], the Growth entry in data set [3] (Table 8, B16 subline, 10 μg/ml) was “+”; in data set [3] (Table 8, B16 subline, 30 μg/ml) it was “+”; in data set [4] (Table 8, L 929, 10 μg/ml), “+”; in data set [4] (Table 8, L 929, 30 μg/ml), “+”. Also, the “Inhibition of metastasis” value in data set [2] is “markedly inhibited”. The “Pulmonary Metastasis, Mouse 1” value in data set [2] (Table 9, 10 μg/ml, 14 days) is reported as 7 no. Moreover, in data set [2] (Table 9, 10 μg/ml, 14 days), the “Pulmonary Metastasis, Mouse 2” value was found to be 4 no. Moreover, the “Pulmonary Metastasis, Mouse 3” value in data set [2] (Table 9, 10 μg/ml, 14 days) is 0 no. In addition, in data set [2] (Table 9, 10 μg/ml, 14 days, None 69 ± 1.0), the “Pulmonary Metastasis (Mean ± Standard Deviation)” value is 3.7 ± 3.5 no. The “Pulmonary Metastasis, %” value in data set [2] (Table 9, 10 μg/ml, None = 100) is on record as 5.4%. The “Cytotoxicity (in words)” value in data set [4] (L 929, even at a concentration as high as 30 μg/ml) was “did not show marked cytotoxicity”.

Turning to `CCOC(=O)[C@H]1NC(=O)[C@H](O)[C@@H](O)[C@@H]1O` [D-Glucaro-δ-lactam ethyl ester, D-glucaro-δ-lactam ethyl ester], in data set [2], the “Inhibition of metastasis” value is “markedly inhibited”. Moreover, the “Pulmonary Metastasis (Mean ± Standard Deviation)” value in data set [2] (setting [5]) came to 13 ± 5.4 no.

For `COc1cccc2c1C(=O)c1c(O)c3c(c(O)c1C2=O)C[C@@](O)(C(=O)CO)C[C@@H]3O[C@H]1C[C@H](N)[C@H](O)[C@H](C)O1` [Adriamycin, reference compound], the Growth result in data set [3] (Table 2, B16 subline, 0.1 μg/ml, control) is given as “-”; in data set [3] (Table 5, B16 subline, 0.1 μg/ml, control) it was “-”; in data set [3] (Table 8, B16 subline, 0.1 μg/ml, control), “-”; in data set [3] (Table 11, B16 subline, 0.1 μg/ml, control) it was “-”; in data set [3] (Table 13, B16 subline, 0.1 μg/ml, control) it was “-”; in data set [4] (Table 2, L 929, 1 μg/ml, control), “-”. For the same compound, the Growth result in data set [4] (Table 5, L 929, 1 μg/ml, control) is recorded as “-”; in data set [4] (Table 8, L 929, 1 μg/ml, control) it was “-”; in data set [4] (Table 11, L 929, 1 μg/ml, control), “-”; in data set [4] (Table 13, L 929, 1 μg/ml, control) it was “-”.

As for `OC[C@H]1NC[C@H](O)[C@@H](O)[C@@H]1O` [1-Deoxynojirimycin, 1-deoxynojirimycin], the “Inhibition of metastasis” value in data set [2] was “the number of colonies on the surface of and in the lungs was markedly inhibited”. The “Pulmonary Metastasis (Mean ± Standard Deviation)” value in data set [2] (Table 15, 30 μg/ml, 3 mice, None 119 ± 37) came out at 31 ± 11 no.

In the case of `O=C(O)[C@H]1NC(=O)[C@H](O)[C@@H](O)[C@@H]1O` [D-Glucaro-δ-lactam sodium salt], the LD50 in data set [1] (iv) is more than 3000 mg/kg; in data set [1] (po) it was more than 5000 mg/kg.

On to `CC(=CCN1C[C@H](O)[C@@H](O)[C@H](O)[C@H]1CO)c1ccc(Cl)cc1` [N-(3-p-chlorophenyl-3-methyl-2-propenyl)-1-deoxynojirimycin], for which the “Inhibition of metastasis” value in data set [2] was “markedly inhibited”.

For the compound `COc1ccc2c(c1)c(CC(=O)OC[C@H]1NC(=O)[C@H](OC(=O)Cc3c(C)n(C(=O)c4ccc(Cl)cc4)c4ccc(OC)cc34)[C@@H](O)[C@@H]1O)c(C)n2C(=O)c1ccc(Cl)cc1` [2,6-di-O-[1-(p-chlorobenzoyl)-5-methoxy-2-methylindole-3-acetyl]-D-gluco-δ-lactam], the Growth entry in data set [3] (Table 11, B16 subline, 10 μg/ml) is “+”; in data set [4] (Table 11, L 929, 3 μg/ml), “+”; in data set [4] (Table 11, L 929, 10 μg/ml), “+”; in data set [4] (Table 11, L 929, 30 μg/ml) it was “+”. In addition, in data set [4] (L 929, even at a concentration as high as 10 μg/ml), the “Cytotoxicity (in words)” value was “did not show marked cytotoxity”.
